The text below walks through data of patent US20180244611A1, “Modulators of the Cystic Fibrosis Transmembrane Conductance Regulator Protein and Methods of Use” (AbbVie S.à.r.l., priority 2017, published 2018).

The structures appear in SMILES notation.

Experiment [1] concerns the target T1, F508delCFTR (Homo sapiens, UniProt P13569, DEL508-508).
T1 construct: expressed in transfected cells; host or cells: CFBE41o- human lung-derived epithelial cells (CFBE41o-F508delCFTR-HRP), doxycycline-inducible
Description: Cell Surface Expression-Horse Radish Peroxidase (CSE-HRP) assay, test compound without co-corrector.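 On Emax: percent of on-plate 2 µM positive control corrector response over DMSO.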 In kind it is cell-based. The conditions noted are these: for Emax: maximum at any tested concentration, normalized to positive control, without co-corrector; for EC50: test compound without co-corrector. A digest of the protocol: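 CFBE41o- cells expressing F508delCFTR with HRP in the fourth exofacial loop, induced with 0.5 μg/mL doxycycline for 72 h at 37° C, then exposed to compound alone for 18-24 h at 33° C, 8-point 3-fold series from 20 μM. Surface HRP read by luminol luminescence, normalized to positive corrector control versus DMSO; EC50 from variable-slope sigmoidal fit of three replicate plates.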

Experiment [2] concerns the target T1, F508delCFTR. Put plainly: Cell Surface Expression-Horse Radish Peroxidase (CSE-HRP) assay, test compound with co-corrector.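 On Maximum % activity (with co-corrector): percent of 2 µM positive control corrector over DMSO; co-corrector is that same compound.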 Type of experiment: cell-based. The conditions noted are these: with 2 μM co-corrector; for Maximum % activity (with co-corrector): maximum at any tested concentration, normalized to positive control. A digest of the protocol:
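CFBE41o- cells expressing F508delCFTR with HRP in the fourth exofacial loop, induced with 0.5 μg/mL doxycycline for 72 h, then treated 18-24 h at 33° C. with compound (8 points, top 20 μM, 3-fold) plus 2 μM co-corrector. Surface HRP read by luminol luminescence; activity normalised to positive control, EC50 from variable-slope sigmoidal fit.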

T1 sequence (P13569 with tags, fused parts or gaps DEL508-508): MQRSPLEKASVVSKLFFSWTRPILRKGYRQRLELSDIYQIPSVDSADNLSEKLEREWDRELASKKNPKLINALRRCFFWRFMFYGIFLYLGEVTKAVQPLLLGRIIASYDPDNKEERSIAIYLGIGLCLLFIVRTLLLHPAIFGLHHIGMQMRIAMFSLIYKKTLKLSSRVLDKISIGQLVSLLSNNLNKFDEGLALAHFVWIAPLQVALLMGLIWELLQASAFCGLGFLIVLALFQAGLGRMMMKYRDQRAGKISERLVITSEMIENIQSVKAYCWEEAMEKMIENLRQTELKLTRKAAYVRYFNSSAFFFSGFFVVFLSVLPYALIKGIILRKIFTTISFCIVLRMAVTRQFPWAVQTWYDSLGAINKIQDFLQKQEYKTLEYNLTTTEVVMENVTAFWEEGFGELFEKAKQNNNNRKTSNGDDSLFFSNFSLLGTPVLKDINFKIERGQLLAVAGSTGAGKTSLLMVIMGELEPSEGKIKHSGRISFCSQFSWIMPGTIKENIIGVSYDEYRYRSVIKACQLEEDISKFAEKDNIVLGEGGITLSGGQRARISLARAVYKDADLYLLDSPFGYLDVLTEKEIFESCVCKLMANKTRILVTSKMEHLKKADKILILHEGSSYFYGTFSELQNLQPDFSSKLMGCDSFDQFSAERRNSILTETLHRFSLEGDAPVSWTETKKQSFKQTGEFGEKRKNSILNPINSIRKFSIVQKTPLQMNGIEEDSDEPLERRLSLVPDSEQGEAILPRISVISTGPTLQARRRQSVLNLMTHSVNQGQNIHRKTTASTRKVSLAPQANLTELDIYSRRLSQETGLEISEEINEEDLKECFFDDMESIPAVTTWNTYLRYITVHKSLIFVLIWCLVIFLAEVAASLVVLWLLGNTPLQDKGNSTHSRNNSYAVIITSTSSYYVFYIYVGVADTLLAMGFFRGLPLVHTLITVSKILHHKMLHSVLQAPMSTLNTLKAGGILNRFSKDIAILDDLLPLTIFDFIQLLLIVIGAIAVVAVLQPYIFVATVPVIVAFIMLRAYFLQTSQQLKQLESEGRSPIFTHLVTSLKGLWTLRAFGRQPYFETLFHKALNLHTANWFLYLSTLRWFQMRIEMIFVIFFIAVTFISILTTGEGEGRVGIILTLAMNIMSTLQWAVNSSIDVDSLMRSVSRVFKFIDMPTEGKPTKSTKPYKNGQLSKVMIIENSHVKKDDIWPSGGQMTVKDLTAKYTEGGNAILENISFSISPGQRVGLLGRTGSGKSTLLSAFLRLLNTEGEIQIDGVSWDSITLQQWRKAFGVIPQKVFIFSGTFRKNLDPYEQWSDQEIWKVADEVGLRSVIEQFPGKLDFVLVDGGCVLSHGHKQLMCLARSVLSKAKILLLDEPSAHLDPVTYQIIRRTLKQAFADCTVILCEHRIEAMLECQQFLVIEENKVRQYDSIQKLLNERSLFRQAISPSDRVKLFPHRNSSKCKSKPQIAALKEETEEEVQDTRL

Consider `CCC1(C(=O)NS(=O)(=O)c2cccc(Br)c2C)CCc2c(Cl)cccc21` (centres unmarked) [II-100], for which, on F508delCFTR [1], the Emax (commonly the maximal effect, on the per cent scale that the assay sets) was in the range of 50 to 150% and the EC50 (as a rule, the concentration at which the effect is half-maximal) is 3 to 10 µM. Moreover, at F508delCFTR [2], the “Maximum % activity (with co-corrector)” value is recorded as “+++ (≥350)” and the EC50 is 3 to 10 µM.
At F508delCFTR [1], `CCC1(C(=O)NS(=O)(=O)c2cccc(F)c2C)CCc2c(Cl)cccc21` (centres unmarked) [II-101] came in with an Emax of under 50% and an EC50 of under 3 µM. At F508delCFTR [2], the “Maximum % activity (with co-corrector)” value is “++ (≥150 and <350)”; the EC50 is under 3 µM.
At F508delCFTR [1], `CCC1(C(=O)NS(=O)(=O)c2ccccc2COC)CCc2c(Cl)cccc21` (centres unmarked) [II-102] yielded an Emax of under 50% and an EC50 of 3 to 10 µM. On F508delCFTR [2], the “Maximum % activity (with co-corrector)” value was “++ (≥150 and <350)”; the EC50 is under 3 µM.
Turning to `CCC1(C(=O)NS(=O)(=O)c2cccc(F)c2F)CCc2c(Cl)cccc21` (centres unmarked) [II-103], on F508delCFTR [1], the Emax was under 50% and the EC50 is at least 10 µM. For the same compound, at F508delCFTR [2], the “Maximum % activity (with co-corrector)” value was “+ (<150)” and the EC50 was under 3 µM.
At F508delCFTR [1], `CCC1(C(=O)NS(=O)(=O)c2ccccc2OCC(F)F)CCc2c(Cl)cccc21` (centres unmarked) [II-104] yielded an Emax of under 50% and an EC50 of under 3 µM. Also, at F508delCFTR [2], the “Maximum % activity (with co-corrector)” value was “++ (≥150 and <350)”; the EC50 is under 3 µM.
On F508delCFTR [1], `CCC1(C(=O)NS(=O)(=O)c2cccc3nccnc23)CCc2c(Cl)cccc21` (centres unmarked) [II-105] yielded an Emax of under 50% and an EC50 of at least 10 µM. In addition, on F508delCFTR [2], the “Maximum % activity (with co-corrector)” value was “+ (<150)” and the EC50 was under 3 µM.
At F508delCFTR [1], `CCC1(C(=O)NS(=O)(=O)c2cccc(Cl)c2F)CCc2c(Cl)cccc21` (centres unmarked) [II-106] had an Emax of under 50% and an EC50 of at least 10 µM. At F508delCFTR [2], the “Maximum % activity (with co-corrector)” value is “++ (≥150 and <350)”; the EC50 was under 3 µM.
At F508delCFTR [1], `CCC1(C(=O)NS(=O)(=O)c2cccc(Cl)c2Cl)CCc2c(Cl)cccc21` (centres unmarked) [II-107] registered an Emax of under 50% and an EC50 of under 3 µM. Moreover, on F508delCFTR [2], the “Maximum % activity (with co-corrector)” value was “++ (≥150 and <350)”; the EC50 is under 3 µM.
With `CCC1(C(=O)NS(=O)(=O)c2cn(C)c3ccccc23)CCc2c(Cl)cccc21` (centres unmarked) [II-108], on F508delCFTR [1], the Emax lay in the range of 50 to 150% and the EC50 is 3 to 10 µM. Also, at F508delCFTR [2], the “Maximum % activity (with co-corrector)” value is “+++ (≥350)” and the EC50 is under 3 µM.
On F508delCFTR [1], `COc1ccc(CCC2OCCCO2)c2c1C(C(=O)NS(=O)(=O)c1cccc3ccccc13)CCC2` (centres unmarked) [II-109] came in with an Emax of at least 150% and an EC50 of 3 to 10 µM. Moreover, on F508delCFTR [2], the “Maximum % activity (with co-corrector)” value was “+++ (≥350)” and the EC50 was in the range of 3 to 10 µM.
`COc1ccc(C#N)c2c1C(C(=O)NS(=O)(=O)c1cccc3ccccc13)CC2` (centres unmarked) [II-110]: at F508delCFTR [1], the Emax was at least 150% and the EC50 is 3 to 10 µM. In addition, at F508delCFTR [2], the “Maximum % activity (with co-corrector)” value is listed as “+++ (≥350)” and the EC50 was under 3 µM.
At F508delCFTR [1], `COc1ccc(C#N)c2c1C(C(=O)NS(=O)(=O)c1cccc3ccccc13)CCC2` (centres unmarked) [II-111] registered an Emax of at least 150% and an EC50 of 3 to 10 µM. Also, on F508delCFTR [2], the “Maximum % activity (with co-corrector)” value was “+++ (≥350)” and the EC50 is under 3 µM.
As to `CCC1(C(=O)NS(=O)(=O)c2cccc(C3CCC3)c2C)CCc2c(Cl)cccc21` (centres unmarked) [II-112], on F508delCFTR [1], the Emax is under 50% and the EC50 fell in the range of 3 to 10 µM. For the same compound, on F508delCFTR [2], the “Maximum % activity (with co-corrector)” value was “++ (≥150 and <350)”; the EC50 is under 3 µM.
At F508delCFTR [1], `CCC1(C(=O)NS(=O)(=O)c2cccc3cnccc23)CCc2c(Cl)cccc21` (centres unmarked) [II-113] showed an Emax of at least 150% and an EC50 of 3 to 10 µM. Also, at F508delCFTR [2], the “Maximum % activity (with co-corrector)” value was “+++ (≥350)” and the EC50 was under 3 µM.
For the compound `COc1cccc2c1C(C(=O)NS(=O)(=O)c1cccc3ccccc13)C2` (centres unmarked) [II-114], on F508delCFTR [1], the Emax is at least 150% and the EC50 is 3 to 10 µM. At F508delCFTR [2], the “Maximum % activity (with co-corrector)” value is reported as “+++ (≥350)” and the EC50 lay within 3 to 10 µM.
For `COc1ccc(Br)c2c1C(C(=O)NS(=O)(=O)c1cccc3cccnc13)CC2` (centres unmarked) [II-116], at F508delCFTR [1], the Emax is at least 150% and the EC50 was in the range of 3 to 10 µM. Also, at F508delCFTR [2], the “Maximum % activity (with co-corrector)” value is on record as “+++ (≥350)” and the EC50 was in the range of 3 to 10 µM.
As to `COc1ccc(Br)c2c1C(C(=O)NS(=O)(=O)c1ccc(F)c3ncccc13)CC2` (centres unmarked) [II-117], on F508delCFTR [1], the Emax was at least 150% and the EC50 fell in the range of 3 to 10 µM. Also, on F508delCFTR [2], the “Maximum % activity (with co-corrector)” value is reported as “+++ (≥350)” and the EC50 was under 3 µM.
